Test results from PubChem BioAssay AID330 (DTP/NCI, 2004).
Where “and” joins values, the source holds several entries; their conditions need not be identical. Equal entries are not always repeated. Inconclusive results and toxic doses are left out.

Test system: P388 leukemia ip, CD2F1 mice, survival T/C
Test: NCI In Vivo Anticancer Drug Screen. Data for tumor model P388 Leukemia (intraperitoneal) in CD2F1 (CDF1) mice
Conditions: endpoint: median survival time, higher = longer survival
Method in brief: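 Mice carrying the transplanted tumor received test compound or vehicle. Survival was recorded in each group, and the value is the treated-group measurement divided by that of the vehicle-treated control group.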

[1] = dose: 60.0 mg/kg/injection, schedule: Q01DX005 (ip), vehicle: Klucel (hydroxypropylcellulose) (HPC)
[2] = dose: 120.0 mg/kg/injection, schedule: Q01DX005 (ip), vehicle: Klucel (hydroxypropylcellulose) (HPC)
[3] = dose: 50.0 mg/kg/injection, schedule: Q01DX009 (ip), vehicle: saline with Tween-80
[4] = dose: 100.0 mg/kg/injection, schedule: Q01DX009 (ip), vehicle: saline with Tween-80
[5] = dose: 200.0 mg/kg/injection, schedule: Q01DX009 (ip), vehicle: saline with Tween-80
[6] = dose: 50.0 mg/kg/injection, schedule: Q01DX005 (ip), vehicle: saline with Tween-80
[7] = dose: 100.0 mg/kg/injection, schedule: Q01DX005 (ip), vehicle: saline with Tween-80
[8] = dose: 12.5 mg/kg/injection, schedule: Q01DX005 (ip), vehicle: saline
[9] = dose: 25.0 mg/kg/injection, schedule: Q01DX005 (ip), vehicle: saline

Question: How did the T/C [1] turn out when CCCCCCCCCC(=O)c1cc(O)c(C(=O)CCCCCCCCC)cc1O was run?
Answer: The T/C was 103 % of control.

Question: What about the T/C [2] of the same compound?
Answer: The T/C was 104 % of control.

Question: And the T/C (dose: 240.0 mg/kg/injection, schedule: Q01DX005 (ip), vehicle: Klucel (hydroxypropylcellulose) (HPC))?
Answer: The T/C was 105 % of control.

Question: Which results are given for c1ccc(C[N+]23CCN(CC2)CC3)cc1?
Answer: T/C (dose: 12.5 mg/kg/injection, schedule: Q04DX003 (ip), vehicle: saline): 109 % of control; T/C (dose: 25.0 mg/kg/injection, schedule: Q04DX003 (ip), vehicle: saline): 95 % of control; T/C (dose: 50.0 mg/kg/injection, schedule: Q04DX003 (ip), vehicle: saline): 90 % of control

Question: With CC(CN=C(CC(=O)c1ccccc1)c1ccccc1)N=C(CC(=O)c1ccccc1)c1ccccc1.[Cu] (stereo not given) as the compound, how does the T/C [3] read?
Answer: Its T/C is 100 % of control.

Question: What about the T/C [4] of the same compound?
Answer: The T/C was 106 % of control.

Question: And the T/C [5]?
Answer: Its T/C is 91 % of control.

Question: How did the T/C (dose: 0.5 mg/kg/injection, schedule: Q04DX003 (ip), vehicle: saline) turn out when CSc1nc(Cl)cc(N2CC2)n1 was run?
Answer: The T/C was 110 % of control.

Question: What about the T/C (dose: 1.0 mg/kg/injection, schedule: Q04DX003 (ip), vehicle: saline) of the same compound?
Answer: The T/C was 100 % of control.

Question: What about the T/C (dose: 2.0 mg/kg/injection, schedule: Q04DX003 (ip), vehicle: saline) of the same compound?
Answer: Its T/C is 100 % of control.

Question: Which results are given for COC(=O)C1(CS(C)(=O)=O)NC(=S)NC(=O)C1C#N (stereo not given)?
Answer: T/C (dose: 60.0 mg/kg/injection, schedule: Q01DX005 (ip), vehicle: saline): 97 % of control; T/C (dose: 120.0 mg/kg/injection, schedule: Q01DX005 (ip), vehicle: saline): 91 % of control; T/C (dose: 240.0 mg/kg/injection, schedule: Q01DX005 (ip), vehicle: saline): 91 % of control

Question: Which T/C [6] does the source give for O=C1C2CC3CC1CC(Cl)(C3)C2 here?
Answer: Its T/C is 112 % of control.

Question: What about the T/C [7] of the same compound?
Answer: Its T/C is 98 % of control.

Question: What does the source list for CCC(CC)NCCCNc1cc(OC)cc2cccnc12?
Answer: T/C [8]: 108 % of control; T/C [9]: 104 % of control

Question: Which results are given for Cc1ccc(Cc2nnc(C)c3c(C)[nH]nc23)cc1?
Answer: T/C (dose: 50.0 mg/kg/injection, schedule: Q01DX009 (ip), vehicle: Klucel (hydroxypropylcellulose) (HPC)): 100 % of control; T/C (dose: 100.0 mg/kg/injection, schedule: Q01DX009 (ip), vehicle: Klucel (hydroxypropylcellulose) (HPC)): 95 % of control; T/C (dose: 200.0 mg/kg/injection, schedule: Q01DX009 (ip), vehicle: Klucel (hydroxypropylcellulose) (HPC)): 93 % of control

Question: For CN(C)c1ccc2c(=O)c(C(=O)O)c[nH]c2c1, which T/C (dose: 6.25 mg/kg/injection, schedule: Q01DX005 (ip), vehicle: saline) is on record?
Answer: The T/C was 96 % of control.

Question: What about the T/C [8] of the same compound?
Answer: Its T/C is 100 % of control.

Question: And the T/C [9]?
Answer: The T/C was 96 % of control.

Question: What about the T/C (dose: 25.0 mg/kg/injection, schedule: Q01DX009 (ip), vehicle: water) of the same compound?
Answer: The T/C was 99 % of control.

Question: What about the T/C (dose: 50.0 mg/kg/injection, schedule: Q01DX005 (ip), vehicle: saline) of the same compound?
Answer: The T/C was 95 % of control.

Question: What about the T/C (dose: 50.0 mg/kg/injection, schedule: Q01DX009 (ip), vehicle: water) of the same compound?
Answer: Its T/C is 101 % of control.

Question: What about the T/C (dose: 100.0 mg/kg/injection, schedule: Q01DX009 (ip), vehicle: water) of the same compound?
Answer: Its T/C is 94 % of control.

Question: And the T/C (dose: 200.0 mg/kg/injection, schedule: Q01DX009 (ip), vehicle: water)?
Answer: The T/C was 89 % of control.

Question: What about the T/C (dose: 400.0 mg/kg/injection, schedule: Q01DX009 (ip), vehicle: water) of the same compound?
Answer: Its T/C is 93 % of control.

Question: For Cc1noc(NC(=O)Nc2ccccc2F)c1C#N, which T/C [6] is on record?
Answer: Its T/C is 91 % of control.

Question: And the T/C [7]?
Answer: Its T/C is 100 % of control.

Question: How did the T/C (dose: 25.0 mg/kg/injection, schedule: Q01DX009 (ip), vehicle: saline with Tween-80) turn out when NC(=S)/N=C(/N)NC(=O)c1ccccc1 was run?
Answer: The T/C was 87 % of control.

Question: What about the T/C [3] of the same compound?
Answer: The T/C was 87 % of control.

Question: What about the T/C [4] of the same compound?
Answer: The T/C was 86 % of control.

Question: And the T/C [5]?
Answer: The T/C was 110 % of control.

Question: How did the T/C [1] turn out when c1ccc(Sc2c(-c3ccccc3)c(-c3ccccc3)c3n2CCC3)cc1 was run?
Answer: The T/C was 86 % of control.

Question: What about the T/C [2] of the same compound?
Answer: Its T/C is 86 % of control.

Question: C[n+]1cccc(/C=N/O)c1 was tested. Which T/C (dose: 100.0 mg/kg/injection, schedule: Q04DX002 (ip), vehicle: saline) did it give?
Answer: The T/C was 100 % of control.

Question: And the T/C (dose: 200.0 mg/kg/injection, schedule: Q04DX002 (ip), vehicle: saline)?
Answer: The T/C was 100 % of control.

Question: For C#CCNC1=C(C)C(=O)C2=C(C1=O)[C@H](COC(N)=O)[C@]1(OC)[C@@H]3N[C@@H]3CN21, which T/C (dose: 12.0 mg/kg/injection, schedule: Q01DX001 (ip), vehicle: distilled water + Tween-80) is on record?
Answer: The T/C was 163 % of control.

Question: And the T/C (dose: 24.0 mg/kg/injection, schedule: Q01DX001 (ip), vehicle: distilled water + Tween-80)?
Answer: Its T/C is 173 % of control.

Question: And the T/C (dose: 48.0 mg/kg/injection, schedule: Q01DX001 (ip), vehicle: distilled water + Tween-80)?
Answer: The T/C was 165 % of control and 265 % of control.

Question: And the T/C (dose: 96.0 mg/kg/injection, schedule: Q01DX001 (ip), vehicle: distilled water + Tween-80)?
Answer: Its T/C is 203 % of control.
